Drawing on ChEMBL document CHEMBL1143737, “Synthesis and biological evaluation of conformationally constrained analogues of the antitubercular agent ethambutol” (2007), this text covers MIC for one compound.

In this experiment the test system is Mycobacterium tuberculosis. The experiment is described as follows: Antimycobacterial activity against Mycobacterium tuberculosis H37Rv after 6 days by colorimetric microassay. It counts as functional. To be noted: 144 h.

In brackets after ≈: the same amount, converted by molar mass.

Usually MIC stands for the lowest concentration that inhibits growth of the organism. A higher MIC goes with weaker potency. Turning to `CC[C@@H](CO)NCCN[C@@H](CC)CO` [ETHAMBUTOL], the lowest concentration to inhibit growth (MIC) was 2 µg/mL (≈ 9.79 µM).
